What was measured:
[1] = DPPH radical scavenging activity; assay type: biochemical; settings: sample solutions 1-100 μM, 30 minutes at room temperature in the dark, absorbance 517 nm, FIG. 10
Description: Ceratonia siliqua B obtained in Example 2 was used to measure the DPPH radical scavenging activity of Ceratonia siliqua B.
First, Ceratonia siliqua B obtained in Example 2 was accurately weighed out and dissolved in methanol to prepare a sample solution with a concentration of 100 μM. This sample solution having a concentration of 100 μM was further diluted with methanol to obtain sample solutions with different concentrations of 1 μM, 5 μM, 10 μM and 50 μM. Next, 2 mg of DPPH (2,2-diphenyl-1-picrylhydrazyl) was dissolved in 50 mL of methanol to prepare a 100 μM DPPH solution.
A 190 μL portion of the DPPH solution was placed in each of wells of a 96-well microplate, and 10 μL of the sample solution was quickly added thereto. […] Thereafter, the absorbance at 517 nm (Asample) was measured with a microplate reader. The reaction solution to which methanol was added instead of the sample solution was used as a blank, and the absorbance of the blank (Ablank) was measured. In addition, the absorbance (Asample blank) due to coloration of the sample solution itself at each concentration was measured as a sample blank. […]
The radical scavenging rate (%) was determined by the following equation.
[formula] • wherein Ablank is the absorbance of the blank, Asample is the absorbance of the sample solution, and Asample blank is the absorbance of the sample blank.

[2] = tested on: HepG2 cells; assay: MTT cytotoxicity test on HepG2 cells; assay type: cell-based, human; settings: concentrations of 1 to 100 μM, 48 hours, FIG. 11
Description: (§1) In this test, a HepG2 cell, a human liver-derived tumor cell line was used as a living cell. HepG2 cells were cultured in a DMEM medium (containing 10% FBS, 100 U/mL penicillin and […] streptomycin) in the presence of 5% CO2 at 37° C. and saturated humidity.
(§2) Ceratonia siliqua B was diluted with a DMEM medium to obtain sample solutions with different concentrations of 1 μM, 5 μM, 10 μM, 50 μM and 100 μM.
First, an MTT test was performed to confirm the presence or absence of cytotoxicity of Ceratonia siliqua B against HepG2 cells. HepG2 cells that have been subcultured for three generations or more were treated with trypsin to prepare a single cell suspension having a concentration of 1×10^5 cells/mL. A 100 μL portion of this cell suspension was seeded in each well of a 96-well microplate and cultured in a CO2 incubator for 24 hours. After culturing, the supernatant was removed, and the wells were divided into a control (blank control) group and a test group. […] After 4 hours, the supernatant was removed, a 150 μL portion of DMSO was added to each well, and the absorbance at 570 nm was measured with a microplate reader. […]
(§3) The cell viability of the test group was calculated taking the value for the control (blank control) group as 100.

[3] = tested on: HepG2 cells; assay: Measurement of ROS in HepG2 cells (hydrogen peroxide induced, DCFH-DA); assay type: cell-based, human; settings: 1-100 μM, 24 hours pre-culture, 400 μM hydrogen peroxide 90 minutes, FIG. 12
Description: Ceratonia siliqua B obtained in Example 2 was used to examine the effect of Ceratonia siliqua B on the generation of reactive oxygen species (ROS) in living cells.
as §1
A HepG2 cell suspension having a concentration of 1×10^5 cells/mL was prepared, and a 100 μL portion of the cell suspension was seeded in each well of a 96-well microplate and cultured in a CO2 incubator for 24 hours. These wells were divided into a blank control group, a positive control group and a test group. […] Thereafter, the medium in each well was removed, 100 μL of PBS was added thereto, and fluorescence intensity at 535 nm was measured at an excitation wavelength of 485 nm. The amount of ROS generated in the positive control group and the test group was calculated taking the fluorescence intensity of the blank control group as 1.0 (basal). […]

[4] = tested on: B16 melanoma cells; assay: Amount of melanin produced in B16 melanoma cells (melanogenesis inhibition); assay type: cell-based, mouse; settings: for inhibition at 10 µM: concentration 10 μM
Description: (§4) In this test, B16 melanoma cells were used. A B16 melanoma cell, a mouse skin melanoma-derived cell line, has melanogenic capacity. B16 melanoma cells were cultured in a DMEM medium (containing 10% FBS, 100 U/mL penicillin and […] streptomycin) in the presence of 5% CO2 at 37° C. and saturated humidity.
as §2
A single cell suspension of B16 melanoma cells was prepared, and 4×10^4 B16 melanoma cells were seeded in each well of a 12-well microplate. After culturing overnight in a CO2 incubator, the supernatant was removed, and the wells were divided into a blank control group, a positive control group and a test group. A 1 mL portion of a DMEM medium was added to each well of the blank control group, a 1 mL portion of each of solutions of L-ascorbic acid dissolved in DMEM medium at different concentrations (a concentration of L-ascorbic acid: 0.1 μM, 5 μM, 10 μM) was added to each well of the positive control group, and a 1 mL portion of each of the sample solutions from the above (b) was added to each well of the test group. After culturing for 48 hours, the supernatant was removed from each well followed by washing twice with PBS buffer, treatment with trypsin and addition of 1.2 mL of PBS buffer to prepare a single cell suspension. A 200 μL aliquot of this cell suspension was taken to determine the protein content. The remaining cell suspension was centrifuged at 3000 rpm for 5 minutes to remove the supernatant. Thereafter, 250 μL of a 1 M NaOH solution containing 1% DMSO was added thereto and dissolved for 30 minutes in a water bath heated to 80° C. A 200 μL aliquot of this solution was taken and the absorbance at 405 nm (Atest group, Apositive control group, Ablank control group) was measured. The test was performed in triplicate (3 wells) for the blank control group, for the positive control group and for each concentration of the sample solution in the test group (n=3).
The intracellular melanogenesis inhibition rate (%) was determined for the test group and the positive control group by the following equations:
[formula] • wherein Atest group is the absorbance of the test group, Apositive control group is the absorbance of the positive control group, and Ablank control group is the absorbance of the blank control group.

[5] = tested on: B16 melanoma cells; assay: MTT cytotoxicity test on B16 melanoma cells; assay type: cell-based, mouse; settings: concentrations of 1 to 100 μM, 48 hours, FIG. 13
Description: as §4, §2
First, an MTT test was performed to confirm the presence or absence of cytotoxicity of Ceratonia siliqua B against B16 melanoma cells. B16 melanoma cells that had been subcultured for three generations or more were treated with trypsin to prepare a single cell suspension having a concentration of 3×10^4 cells/mL. A 100 μL portion of this cell suspension was seeded in each well of a 96-well microplate and cultured overnight in a CO2 incubator. The supernatant was removed from each well, and the wells were divided into a control (blank control) group and a test group. […] After 4 hours, the supernatant was removed, a 150 μL portion of DMSO was added to each well, and the absorbance at 570 nm was measured with a microplate reader. […]
as §3

[6] = Mus musculus, B16, 48 h, 48 hours, B16 melanoma cells, read-out: Melanogenesis inhibition rate (%)

| Compound | DPPH radical scavenging activity [1] | cytotoxicity against HepG2 cells (MTT, cell viability) [2] | ROS generation inhibiting effect in HepG2 cells [3] | inhibition at 10 µM [4, 6] | inhibition at 50 µM ([4]; Mus musculus, B16, 48 h, concentration 50 μM, 48 hours, B16 melanoma cells, read-out: Melanogenesis inhibition rate (%)) | inhibition at 100 µM ([4]; Mus musculus, B16, 48 h, concentration 100 μM, 48 hours, B16 melanoma cells, read-out: Melanogenesis inhibition rate (%)) | inhibition effect on melanogenesis in B16 melanoma cells (in words) ([4]; concentration of 10 to 100 μM, P<0.05) | cytotoxicity against B16 melanoma cells (MTT, cell viability) [5] | inhibition at 0.1 µM ([4]; Mus musculus, B16, 48 h, concentration 0.1 μM, 48 hours, B16 melanoma cells, read-out: Melanogenesis inhibition rate (%)) | inhibition at 5 µM ([4]; Mus musculus, B16, 48 h, concentration 5 μM, 48 hours, B16 melanoma cells, read-out: Melanogenesis inhibition rate (%)) |
| --- | --- | --- | --- | --- | --- | --- | --- | --- | --- | --- |
| COc1cc(/C=C/COC(=O)C(C)C)cc(OC)c1O[C@@H]1O[C@H](CO)[C@@H](O)[C@H](O)[C@H]1O [Ceratonia siliqua B] | scavenge DPPH radicals in a concentration-dependent manner | no cytotoxicity | inhibited the increase in ROS induced by hydrogen peroxide in HepG2 cells in a concentration-dependent manner | 20.2% | 25.6% | > 30% | significant inhibition effect on melanogenesis | no cytotoxicity | – | – |
| O=C1O[C@H]([C@@H](O)CO)C(O)=C1O [L-Ascorbic acid, L-ascorbic acid, reference compound] | – | – | – | 32.8% | – | – | – | – | 9.2% | 15.6% |

From patent US20240270779A1, “NOVEL PHENYLPROPANOID COMPOUND” (NABOCUL COSMETICS CO., LTD., priority 2021, published 2024)
